Test results published in article PMC9503778, “Targeted Isolation of Antibiotic Brominated Alkaloids from the Marine Sponge Pseudoceratina durissima Using Virtual Screening and Molecular Networking” (Marine Drugs, 2022).
Several values for one entry are separate records, joined by “and”; a condition that tells them apart may be missing. Equal values may be shown once. Read-outs that look alike come from different tables or passages of the source.

Assays:
[1] = Cytotoxicity assay (CO-ADD); assay type: cell-based; conditions: human embryonic kidney cells
[2] = system: MRSA (G+) strain ATCC 43300; assay: Antimicrobial growth inhibition (CO-ADD), MRSA; assay type: cell-based, Staphylococcus aureus; conditions: for inhibition at 32 µg/mL / MIC: Staphylococcus aureus; for MIC: ATCC 43300, MIC = concentration at which growth inhibited by ≥80%, range 0.25−32 µg/mL, read-out: MIC MRSA
Description: (§1) Compounds 1−3 and 5−12 were assayed against a selection of medically important pathogenic microorganisms (MRSA, E. coli, K. pneumoniae, A. baumanii, P. aeruginosa, C. albicans, C. neoformans), Table 4. […] To the best of our knowledge this compound had not been tested against any drug resistant strain of Gram-positive bacterium until this study.
(§2) The antimicrobial activity testing was performed by the Community for Antimicrobial Drug Discovery (CO-ADD). Compounds were assayed against a range of both Gram negative and Gram positive bacteria (see Supplementary Materials S3) including methicillin-resistant Staphylococcus aureus (MRSA) (G+), Escherichia coli (G-), Klebsiella pneumoniae (G-), Acinetobacter baumannii (G-), Pseudomonas aeruginosa (G-) together with two species of fungus (Candida albicans and Cryptococcus neoformans).
(§3) S3. Antimicrobial activity testing methodology
(§4) The compounds submitted to CO-ADD were evaluated in duplicate (n = 2) against seven microorganisms (five bacteria and two fungi) at a concentration of 32 µg/mL in a 384-well, non-binding surface plate (NBS) for each bacterial/fungal strain, keeping the final DMSO concentration to a maximum of 1% DMSO. All bacteria were cultured in cation-adjusted Mueller-Hinton broth (CAMHB) at 37 °C overnight. A sample of each culture was then diluted 40-fold in fresh broth and incubated at 37 °C for 1.5-3 h. The resultant mid-log phase cultures were diluted (CFU/mL measured by OD600), then added to each well of the compound containing plates, giving a cell density of 5x10^5 CFU/mL and a total volume of 50 µL. All the plates were covered and incubated at 37 °C for 18 h without shaking. […] Inhibition of bacterial growth was determined measuring absorbance at 600 nm (OD600) using a Tecan M1000 Pro mon-ochromator plate reader. […]
(§5) 2 h. The absorbance was measured using a Biotek Synergy HTX plate reader. The percentage of growth inhibition was calculated for each well, using negative control (medium only) and positive control (bacteria without inhibitors) on the same plate as the references. The significance of inhibition values was determined by modified Z-scores, calculated using the median and MAD of the samples (no controls) on the same plate. Samples with inhibition value above 80% and Z-score above 2.5 for either replicate (n = 2 on different plates) were classed as actives.
(§6) Colistin and vancomycin were used as positive bacterial inhibitor standards for Gram-negative and Gram-positive bac-teria, respectively. Fluconazole was used as a positive fungal inhibitor standard for C. albicans and C. neoformans. The antibiotics were provided in four concentrations, with two above and two below its MIC value, and plated into the first eight wells of column 23 of the 384-well NBS plates. The quality control (QC) of the assays was determined by the antimicrobial controls and the Z’-factor (using positive and negative controls). Each plate was deemed to fulfil the qual- […]
(§7) full growth inhibition at their highest concentration, and no growth inhibition at their lowest concentration. The seven […]
(§8) test microorganisms were Staphylococcus aureus MRSA (ATCC 43300), Escherichia coli (ATCC 25922), Klebsiella pneu-moniae (ATCC 700603), Acinetobacter baumanii (ATCC19606), Pseudomonas aeruginosa (ATCC 27853), Candida albicans (ATCC 90028) and Cryptococcus neoformans var. grubii (H99; ATCC 208821).
(§9) S4. Anthelmintic activity testing methodology
(§10) Dose-response evaluations were carried out to estimate the half-maximal inhibitory concentrations (IC50 values) for compounds against Haemonchus contortus (Haecon-5 strain) exsheathed third-stage larvae (xL3s). H. contortus were maintained in experimental sheep and procured in accordance with the institutional animal ethics guidelines and the regulations of Australia (permit no. 1714374; University of Melbourne). Immediately prior to use, third-stage larvae (L3s) were exsheathed and sterilised by incubation in 0.15% (v/v) bleach at 38 °C for 20 min, followed by washes in […]

[3] = system: E. Coli (G-) strain ATCC 25922; assay: Antimicrobial growth inhibition (CO-ADD), E. coli; assay type: cell-based, Escherichia coli; conditions: for % inhibition E. coli: 32 µg/mL; for inhibition at 32 µg/mL / MIC: Escherichia coli; for MIC: ATCC25922, ATCC 25922, MIC = concentration at which growth inhibited by ≥80%, read-out: MIC E. coli
Description: as §1, §2, §3, §4, §5, §6, §7, §8, §9, §10

[4] = system: A. baumannii (G-) strain ATCC 19606; assay: Antimicrobial growth inhibition (CO-ADD), A. baumannii; assay type: cell-based, Acinetobacter baumannii; conditions: for % inhibition A. baumannii: 32 µg/mL; for % inhibition A. baumannii / inhibition at 32 µg/mL: duplicate (n = 2) values; for MIC / inhibition at 32 µg/mL: Acinetobacter baumannii; for MIC: ATCC19606, ATCC 19606, read-out: MIC A. baumannii; for inhibition at 32 µg/mL: ATCC19606, 32 µg/mL, read-out: % inhibition A. baumannii
Description: as §1, §2, §3, §4, §5, §6, §7, §8, §9, §10

[5] = system: C. albicans (yeast) ATCC 90028; assay: Antimicrobial growth inhibition (CO-ADD), C. albicans; assay type: cell-based, Candida albicans; conditions: Candida albicans, ATCC90028; ATCC 90028; read-out: MIC C. albicans
Description: as §1, §2, §3
(§11) The compounds submitted to CO-ADD were evaluated in duplicate (n = 2) against seven microorganisms (five bacteria and two fungi) at a concentration of 32 µg/mL in a 384-well, non-binding surface plate (NBS) for each bacterial/fungal strain, keeping the final DMSO concentration to a maximum of 1% DMSO. All bacteria were cultured in cation-adjusted […]
(§12) Fungal strains were cultured for 3 days on Yeast Extract-Peptone Dextrose (YPD) agar at 30 °C. A yeast suspension of 1 x 10^6 to 5 x 10^6 CFU/mL (as determined by OD530) was prepared from five colonies. The suspension was subsequently diluted and added to each well of the compound-containing plates giving a final cell density of fungi suspension of 2.5 x 10^3 CFU/mL and a total volume of 50 µL. All plates were covered and incubated at 35 °C for 24 h without shaking. […]
as §5, §6, §7, §8, §9
Dose-response evaluations were carried out to estimate the half-maximal inhibitory concentrations (IC50 values) for compounds against Haemonchus contortus (Haecon-5 strain) exsheathed third-stage larvae (xL3s). H. contortus were maintained in experimental sheep and procured in accordance with the institutional animal ethics guidelines and the regulations of Australia (permit no. 1714374; University of Melbourne). Immediately prior to use, third-stage larvae (L3s) were exsheathed and sterilised by incubation in 0.15% (v/v) bleach at 38 °C for 20 min, followed by washes in sterile saline at room temperature (22-24 °C). […]

[6] = system: C. neoformans var. grubii strain ATCC 208821; assay: Antimicrobial growth inhibition (CO-ADD), C. neoformans; assay type: cell-based, Cryptococcus neoformans; conditions: for % inhibition C. neoformans: 32 µg/mL; for inhibition at 32 µg/mL: Cryptococcus neoformans
Description: as §1, §2, §3, §11, §12
as §5, with “Growth inhibition of C. albicans was determined measuring absorbance at 530 nm (OD530), while the growth inhibition of C. neoformans was determined measuring the difference in absorbance between 600 and 570 nm (OD600-570), after the addition of resazurin (0.001% final concentration) and incubation at 35 °C for an additional 2 h.” for “2 h.”
as §6, §7, §8, §9
Dose-response evaluations were carried out to estimate the half-maximal inhibitory concentrations (IC50 values) for compounds against Haemonchus contortus (Haecon-5 strain) exsheathed third-stage larvae (xL3s). H. contortus were maintained in experimental sheep and procured in accordance with the institutional animal ethics guidelines and the […]

[7] = 32 µg/mL, duplicate (n = 2) values

Structure (SMILES) | CC50 [1] | % inhibition MRSA [2, 7] | inhibition at 32 µg/mL ([2]; read-out: % inhibition MRSA, 32 µg/mL, duplicate (n = 2) values) | MIC [2] | % inhibition E. coli ([3]; duplicate (n = 2) values) | inhibition at 32 µg/mL ([3]; ATCC25922, read-out: % inhibition E. coli, 32 µg/mL, duplicate (n = 2) values) | MIC [3] | % inhibition A. baumannii [4] | MIC [4] | MIC [5] | % inhibition C. neoformans ([6]; duplicate (n = 2) values) | inhibition at 32 µg/mL ([6]; ATCC208821, read-out: % inhibition C. neoformans, 32 µg/mL, duplicate (n = 2) values) | CC50 ([1]; human) | inhibition at 32 µg/mL [4] | inhibition at 32 µg/mL ([6]; ATCC208821, 32 µg/mL, duplicate (n = 2) values, read-out: % inhibition C. neoformans) | inhibition at 32 µg/mL ([2]; 32 µg/mL, duplicate (n = 2) values, read-out: % inhibition MRSA) | inhibition at 32 µg/mL ([3]; ATCC25922, 32 µg/mL, duplicate (n = 2) values, read-out: % inhibition E. coli)
COC1=C(Br)[C@H](O)[C@@]2(C=C1Br)CC(C(=O)NCCCOc1c(Br)cc(CCN)cc1Br)=NO2 [Compound 11, araplysillin I] | > 32 µg/mL | 5.7% | 11.3% | > 32 µg/mL | 8.5% | 15.9% | > 32 µg/mL | 3.4% and 7.3% | > 32 µg/mL | > 32 µg/mL | 7.8% | 7.6% |  |  |  |  | 
NC(=O)Cc1c(O)cc(Br)c(O)c1Br [Compound 9, subereaphenol A] |  |  |  | > 32 µg/mL | 1.5% and 9.6% |  | > 32 µg/mL | 18.5% | > 32 µg/mL | > 32 µg/mL | 11.9% |  | > 32 µg/mL | 10.8% | 11.2% |  | 
COc1c(Br)cc(CC#N)c(O)c1Br [Compound 8, 2-(3,5-dibromo-2-hydroxy-4-methoxyphenyl)acetonitrile] |  | 8.5% |  | > 32 µg/mL | 16.9% |  | > 32 µg/mL | 7.5% | > 32 µg/mL | > 32 µg/mL | 11.1% and 4.0% |  | > 32 µg/mL | 11% |  | 7.6% | 12.7%
